From patent US20070088043A1, “Novel HDAC inhibitors” (ORCHID RESEARCH LABORATORIES LIMITED., priority 2005, published 2007) come the findings set out here.

The structures appear in SMILES notation.

For experiment [1], the system named is NCIH 460 cells. As to the kind of experiment: Anti-cancer screen (MTT), NCIH460. The class given is cell-based. The conditions noted are these: Homo sapiens, NCI-H460, NCIH460 cells, 48 hours, MTT; for GI50: concentration to decrease % growth by 50%; for IC100: concentration to decrease % growth by 100%, read-out: NCIH460 TGI; for LC50: concentration to decrease % growth by 150%. The method, then: (§1) Experimental drugs are screened for anti-cancer activity in three cell lines for their GI50, TGI and LC50 values (using five concentrations for each compound). The cell lines are maintained in DMEM containing 10% fetal bovine serum. 96 well micro titer plates are inoculated with cells in 100 μL for 24 h at 37° C., 5% CO2, 95% air and 100% relative humidity. 5000 HCT 116 cells/well, 5000 NCIH 460 cells/well and 5000 U251 cells/well are plated. A separate plate with these cell lines is also inoculated to determine cell viability before the addition of the compounds (T0).
(§2) Following 24-hour incubation, experimental drugs are added to the 96 well plates. Each plate contains one of the above cell lines and the following in triplicate: five different concentrations (0.01, 0.1, 1, 10 and 100 μM) of four different compounds, appropriate dilutions of a cytotoxic standard and control (untreated) wells. Compounds are dissolved in DMSO to make 20 mM stock solutions on the day of drug addition and frozen at −20° C. Serial dilutions of these 20 mM stock solutions are made in complete growth medium such that 100 μL of these drug solutions in medium, of final concentrations equaling 0.01, 0.1, 1, 10 and 100 μM can be added to the cells in triplicate. Standard drugs whose anti-cancer activity has been well documented and which are regularly used are doxorubicin and SAHA.
(§3) For To measurement, 24 hours after seeding the cells, 10 μL of 3-(4,5-Dimethyl-2-thiazolyl)-2,5-diphenyl-2H-tetrazolium (MTT) solution per well is added and incubation carried out for 3 hours at 37° C., 5% CO2, 95% air and 100% relative humidity, protected from light. Cells incubated with compounds for 48 hours are treated similarly except with the addition of 20 μL MTT solution per well and a subsequent incubation under the same conditions. After 3 hours of MTT incubation, well contents are aspirated carefully followed by addition of 150 μL DMSO per well. Plates are agitated to ensure solution of the formazan crystals in DMSO and absorbance read at 570 nm. […]

Experiment [2] concerns HCT 116 cells. As to the kind of experiment: Anti-cancer screen (MTT), HCT116. Type of experiment: cell-based. Conditions: Homo sapiens, HCT-116, HCT116 cells, 48 hours, MTT; for GI50: concentration to decrease % growth by 50%; for IC100: concentration to decrease % growth by 100%, read-out: HCT116 TGI; for LC50: concentration to decrease % growth by 150%. The method, then: as §1, §2, §3

Experiment [3] concerns MDAMB231/U251. The experiment in a line: Anti-cancer screen (MTT), MDAMB231/U251. The class given is cell-based. The conditions noted are these: MDAMB231/U251 cells, 48 hours; for GI50: concentration to decrease % growth by 50%; for IC100: concentration to decrease % growth by 100%, read-out: MDAMB231/U251 TGI; for LC50: concentration to decrease % growth by 150%. The method, then: as §1, §2, §3

Experiment [4] concerns NCIH460, HCT116, MDAMB231/U251. As to the kind of experiment: Anti-cancer screen, mean GI50 over the cell lines. The class given is cell-based. The conditions noted are these: in µM. The procedure: as §1, §2, §3
The test system of experiment [5] is HDAC (Mouse Liver Extract). As to the kind of experiment: Histone Deacetylase (HDAC) Inhibition Assay using Boc-Lys (Ac)-AMC Substrate. Type of experiment: biochemical. The conditions noted are these: mouse liver enzyme, NA = No Activity; for HDAC Inhibition 1 μM / HDAC Inhibition 10 μM: in % (unit assumed). An excerpt: HDAC Activitv Screening: Histone Deacetylase (HDAC) Inhibition Assay using Boc-Lys (Ac)-AMC Substrate:
Inhibition of HDAC has been implicated to modulate transcription and to induce apoptosis or differentiation in cancer cells. The fluorometric assay provides a fast and fluorescence based method that eliminates radioactivity, extractions or chromatography, as used in traditional assays. The assay based on two steps. First, the HDAC fluorometric substrate, which comprises an acetylated lysine side chain, is incubated with a sample containing HDAC activity (Mouse Liver Extract). Deacetylation of the substrate sensitizes the substrate, in the second step; treatment with the Trypsin stop solution produces a fluorophore that can be easily analyzed using fluorescence plate reader.
Assay was done in 96 well black microplate and total volume of the assay is 100 ul. Mouse liver enzyme is diluted 1:6 with HDAC buffer. Enzyme cocktail made of 10 ul of diluted enzyme and 30 ul of HDAC buffer. 40 ul of enzyme cocktail dispensed into each well. 10 ul of different concentrations of inhibitor added in to each well, except enzyme control well. Preincubated the plate at 30° C. for 5 minutes. The HDAC reaction is started by adding 50 ul of HDAC substrate (Boc-Lys (Ac)-AMC Substrate) solution. Incubated the plate at 30° C. for 30 minutes. Adding 100 ul of Trypsin stop solution stops the reaction. The plate is incubated again at 30° C. for 20-30 minutes. The release of AMC is monitored by measuring the fluorescence at excitation wavelength of 365 or 360 nm and emission wavelength of 440 or 460 nm. Buffer and substrate alone kept for blank subtraction. (Dennis Wegener et al, Anal. Biochem, 321, 2003, 202-208).

Usually GI50 stands for the concentration at which growth is held to half of that of the control. The low end stands for greater sensitivity of the cells, the high end for lower sensitivity of the cells. The LC50 is the concentration that kills 50% of the test population. Read a high LC50 as a less lethal substance. Consider `CC(=O)SCCCCC(=O)N1CCN(CC(=O)Nc2ncc([N+](=O)[O-])s2)CC1` [Example 9], for which, in experiment [1], the GI50 is more than 100 µM, the IC100 was more than 100 µM and the LC50 was more than 100 µM. Moreover, in experiment [2], the concentration for 50% growth inhibition (GI50) was more than 100 µM, the IC100 is more than 100 µM and the LC50 was more than 100 µM. In experiment [3], the 50% growth inhibitory concentration (GI50) is more than 100 µM, the IC100 was more than 100 µM and the LC50 was more than 100 µM. The “Mean GI50” value in experiment [4] is more than 100. Moreover, in experiment [5], the “HDAC Inhibition 1 μM” value was found to be 3.39 and the “HDAC Inhibition 10 μM” value is listed as 23.65.
The IC50 is the point on the concentration scale where inhibition reaches its midpoint. Take `CC(=O)SCCCCCC(=O)N1CCN(CC(=O)Nc2nc3c(C)cccc3s2)CC1` [Example 10, 2-[4-(6-Thioacetylhexanoyl)piperazin-1-yl]-N-(4-methyl-1,3-benzothiazol-2-yl)acetamide]: in experiment [1], it took 0.5 µM to inhibit growth by half (GI50), the IC100 is 2 µM and the LC50 turned out to be 95 µM. Further, in experiment [2], halving of growth (GI50) required 3 µM, the IC100 was found to be 50 µM and the LC50 was more than 100 µM. In experiment [3], the 50% growth inhibitory concentration (GI50) stood at 2 µM, the IC100 came to 9 µM and the LC50 was more than 100 µM. Besides, in experiment [4], the “Mean GI50” value stood at 1.80. In addition, in experiment [5], the “HDAC Inhibition 1 μM” value was 54.06, the “HDAC Inhibition 10 μM” value is reported as 87.16 and the IC50 was determined as 1.5 µM.
`CC(=O)SCCCCC(=O)N1CCN(CC(=O)Nc2nc3ccc(C)cc3s2)CC1` [Example 11, 2-[4-(5-Thioacetylpentanoyl)piperazin-1-yl]-N-(6-methyl-1,3-benzothiazol-2-yl)acetamide]: in experiment [1], halving of growth (GI50) required 0.3 µM, the IC100 is 0.9 µM and the LC50 was 8 µM. For the same compound, in experiment [2], halving of growth (GI50) required 5 µM, the IC100 is 40 µM and the LC50 is more than 100 µM. For the same compound, in experiment [3], the GI50 was 1 µM, the IC100 came out at 8 µM and the LC50 is more than 100 µM. In addition, the “Mean GI50” value in experiment [4] is 2.10. Further, in experiment [5], the “HDAC Inhibition 1 μM” value was determined as 31.75, the “HDAC Inhibition 10 μM” value is given as 65.63 and half-maximal inhibition (IC50) was put at 6.5 µM.
For `CC(=O)SCCCCCC(=O)N1CCN(CC(=O)Nc2nc3ccc(C)cc3s2)CC1` [Example 12, 2-[4-(6-Thioacetylhexanoyl)piperazin-1-yl]-N-(6-methyl-1,3-benzothiazol-2-yl)acetamide], in experiment [1], halving of growth (GI50) required 25 µM, the IC100 worked out at 75 µM and the LC50 is more than 100 µM. Moreover, in experiment [2], halving of growth (GI50) required 7 µM, the IC100 was more than 100 µM and the LC50 was not below 100 µM. Moreover, in experiment [3], the GI50 is 19 µM, the IC100 is 65 µM and the LC50 is more than 100 µM. Besides, the “Mean GI50” value in experiment [4] was 17. Also, in experiment [5], the “HDAC Inhibition 1 μM” value came to 57.31 and the “HDAC Inhibition 10 μM” value is listed as 85.59.
With `CC(=O)SCCCCC(=O)N1CCN(CC(=O)Nc2nc3c(C)cccc3s2)CC1` [Example 13, 2-[4-(5-Thioacetylpentanoyl)piperazin-1-yl]-N-(4-methyl-1,3-benzothiazol-2-yl)acetamide], in experiment [1], the GI50 is more than 100 µM, the IC100 was more than 100 µM and the LC50 is more than 100 µM. Moreover, in experiment [2], it took 6 µM to inhibit growth by half (GI50), the IC100 was more than 100 µM and the LC50 is more than 100 µM. Further, in experiment [3], halving of growth (GI50) required 6 µM, the IC100 was 30 µM and the LC50 was more than 100 µM. Also, the “Mean GI50” value in experiment [4] was more than 100. In experiment [5], the “HDAC Inhibition 1 μM” value is given as 26.73 and the “HDAC Inhibition 10 μM” value was 55.56.
Take `CC(=O)SCCCCC(=O)N1CCN(CC(=O)Nc2nc(C(C)(C)C)cs2)CC1` [Example 14, 2-[4-(5-Thioacetylpentanoyl)piperazin-1-yl]-N-(4-tertiarybutyl-1,3-thiazol-2-yl)acetamide]: in experiment [1], the GI50 was more than 100 µM, the IC100 is more than 100 µM and the LC50 is more than 100 µM. In addition, in experiment [2], growth was halved (GI50) at 50 µM, the IC100 is more than 100 µM and the LC50 is more than 100 µM. In experiment [3], the GI50 was 0.08 µM, the IC100 turned out to be 27 µM and the LC50 was more than 100 µM. Moreover, the “Mean GI50” value in experiment [4] is more than 100. In experiment [5], the “HDAC Inhibition 1 μM” value worked out at 23.11 and the “HDAC Inhibition 10 μM” value worked out at 57.33.
Consider `CC(=O)SCCCCC(=O)N1CCN(CC(=O)Nc2ccccc2)CC1` [Example 16, 2-[4-(5-Thioacetylpentanoyl)piperazin-1-yl]-N-(phenyl-2-yl)acetamide], for which, in experiment [1], halving of growth (GI50) required 30 µM, the IC100 was 52 µM and the LC50 is more than 100 µM. Moreover, in experiment [2], halving of growth (GI50) required 58 µM, the IC100 was more than 100 µM and the LC50 was more than 100 µM. In experiment [3], it took 1 µM to inhibit growth by half (GI50), the IC100 is more than 100 µM and the 50% lethal concentration (LC50) was more than 100 µM. Further, the “Mean GI50” value in experiment [4] turned out to be 29.67. Moreover, in experiment [5], the “HDAC Inhibition 1 μM” value is 29.26 and the “HDAC Inhibition 10 μM” value was 68.52.
`CC(=O)SCCCCCC(=O)N1CCN(CC(=O)Nc2nc(C)cs2)CC1` [Example 17, 2-[4-(6-Thioacetylhexanoyl)piperazin-1-yl]-N-(4-methyl-1,3-thiazol-2-yl)acetamide]: in experiment [1], growth was halved (GI50) at 7.5 µM, the IC100 is more than 100 µM and the LC50 is more than 100 µM. Besides, in experiment [2], growth was halved (GI50) at 26 µM, the IC100 is more than 100 µM and the LC50 is more than 100 µM. Moreover, in experiment [3], the GI50 amounted to 67 µM, the IC100 was more than 100 µM and the 50% lethal concentration (LC50) was more than 100 µM. In addition, the “Mean GI50” value in experiment [4] is recorded as 33.50. In experiment [5], the “HDAC Inhibition 1 μM” value is on record as 68.04 and the “HDAC Inhibition 10 μM” value is 96.19.
As for `CC(=O)SCCCCCC(=O)N1CCN(CC(=O)Nc2ccccc2)CC1` [Example 18, 2-[4-(6-Thioacetylhexanoyl)piperazin-1-yl]-N-(phenyl-2-yl)acetamide], in experiment [1], the GI50 was found to be 30 µM, the IC100 was more than 100 µM and the LC50 is more than 100 µM. In experiment [2], the GI50 was 63 µM, the IC100 was more than 100 µM and the LC50 was more than 100 µM. Further, in experiment [3], the GI50 is more than 100 µM, the IC100 is more than 100 µM and the LC50 is more than 100 µM. The “Mean GI50” value in experiment [4] is given as 46.50. Also, in experiment [5], the “HDAC Inhibition 1 μM” value was determined as 65.15 and the “HDAC Inhibition 10 μM” value turned out to be 94.50.
